In patent US20090298811A1, “BENZIMIDAZOLONE DERIVATIVES” (Pfizer Inc, priority 2006, published 2009) one finds Ki and EC50 data, which are given here for 21 molecules.

Assay [1] concerns the target T1, human CB1 receptor (Homo sapiens, UniProt P21554). Nature of the assay: Human CB1 receptor binding, [3H] CP-55,940 displacement on HEK cell membranes. Set-up: expressed in transfected cells; membranes. Conditions: [3H] CP-55,940 500 pM. As for the experimental part:
The Human CB1 receptor binding affinity and other biological activities of the compounds of this invention are determined by the following procedures.
Membrane preparation: Human Embryonic Kidney (HEK) Cells expressing the human CB1 receptor under transcriptional regulation of a tetracycline inducible promoter were grown in Dulbecco's Modified Essential Medium with sodium pyruvate (Invitrogen, Carlsbad, Calif.) containing 10% tetracycline free fetal bovine serum (Clonetech, Mountain View, Calif.) 100 μg/ml hygromycin (Calbiochem, San Diego, Calif.), 5 μg/ml blasticidin (Invitrogen). CB1 receptor expression was induced by addition of 1 μg/ml doxycycline (Calbiochem) and incubation for an additional 24 hours. Cells were released from flasks using Cell Dissociation Buffer (Invitrogen). Cells were pelleted by centrifugation at 500×G for 5 minutes. Membranes were prepared by resuspending cells in ice cold TEE Buffer (25 mM Tris pH 7.4, 5 mM EDTA, 5 mM EGTA, Complete Protease Inhibitor (Roche, Basel, Switzerland)). Cells were lysed with 12 strokes of a dounce homogenizer. Unlysed cells were pelleted by centrifugation at 500×G for 5 minutes. Membranes were pelleted by centrifugation at 25,000×G for 30 minutes. Membranes were resuspended in TEE, dounced 12 strokes, and pelleted a second time at 25,000×G for 30 minutes. Membrane pellet was resuspended in 50 mM Tris pH 7.4, 100 mM NaCl, 3 mM MgCl2, 0.2 mM EGTA, Complete Protease Inhibitor (Roche). Protein concentration was determined using the Micro-BCA Protein Assay Kit (Pierce, Rockford, Ill.) using BSA as a standard. Membranes were quick frozen and stored at −80 degrees Celsius until use. Binding experiments: 50 μl of test compound was incubated with 50 μl, of [^3H] CP-55,940 (Perkin Elmer, Boston, Mass.) (final concentration 500 pM) and 150 μl of membrane homogenate (1 μg/well) in polypropylene 96-well plates (Corning, Acton, Mass.). Final reaction conditions were 50 mM Tris pH 7.4, 100 mM NaCl, 3 mM MgCl2, 0.2 mM EGTA, 0.04% BSA. Nonspecific binding was determined by incubation with 50 μM WIN-55,212-2 (Tocris, Ellisville, Mo.). After incubation at room temperature for 60 minutes reactions were harvested by vacuum filtration through Unifilter GF/B-96 filters (Perkin Elmer) that had been presoaked in assay buffer containing 0.5% BSA (Sigma, St. Louis, Mo.) using a FilterMate Plate Harvester (Perkin Elmer). Filters were rinsed 4 times with 50 mM Tris pH 7.4, 0.025% Tween20 and dried at 50 degrees Celsius for at least 30 minutes. 40 μl of Microscint-20 (Perkin Elmer) was added per well, and plates were counted using a Top-Count Microplate Scintillation Counter (Perkin Elmer). Binding data were analyzed and EC50 and Ki values calculated using Graph Pad Prism 4.0 Software.

The target of assay [2] is T1, human CB1 receptor. The assay can be described thus: GTPγS binding on membranes of CHO cells expressing the human CB1 receptor. It is filed as biochemical. The conditions noted are these: CHO cell membranes, [35S] GTPγS. On the set-up: expressed in transfected cells; host or cells: CHO cells (G418 selection); membranes. As for the experimental part:
Membrane preparation: CHO cells expressing the human CB1 receptor were grown to 80% confluence in Ham's F-12 Nutrient Medium (Invitrogen) containing 10% fetal bovine serum (Invitrogen), 1% pen/strep (Invitrogen), 1% Nonessential amino acids (Invitrogen) and 500 μg/ml G418 (Invitrogen). Cells were released from flasks using Cell Dissociation Buffer (Invitrogen). Cells were pelleted by centrifugation at 500×G for 5 minutes. Membranes were prepared by resuspending cells in ice cold Assay Buffer (25 mM Tris pH 7.4, 5 mM EDTA, 5 mM EGTA, Complete Protease Inhibitor (Roche)). Cells were lysed with 12 strokes of a dounce homogenizer. Unlysed cells were pelleted by centrifugation at 500×G for 5 minutes. Membranes were pelleted by centrifugation at 25,000×G for 30 minutes. Membranes were resuspended in TEE, dounced 12 strokes, and pelleted a second time at 25,000×G for 30 minutes. Membrane pellet was resuspended in 50 mM Tris pH 7.4, 100 mM NaCl, 3 mM MgCl2, 0.2 mM EGTA, Complete Protease Inhibitor (Roche). Protein concentration was determined using the Micro-BCA Protein Assay Kit (Pierce) using BSA as a standard. Membranes were frozen and stored at −80 degrees Celsius until use. GTPγS Binding: 40 μl of test compound was incubated with 20 μl of [^35S] GTPγS (Perkin Elmer) (1250 Ci/millimole) and 140 μl of membrane homogenate (5 ug/well) in polypropylene 96-well plates (Corning). Final reaction conditions were 50 mM Tris pH 7.4, 100 mM NaCl, 3 mM […], 0.2 mM EGTA, 0.04% BSA. After incubation at 37 degrees Celsius for 45 minutes reactions were harvested by vacuum filtration through Unifilter GF/B-96 filters (Perkin Elmer) using a FilterMate Plate Harvester (Perkin Elmer). Filters were rinsed 4 times with ice cold 50 mM Tris pH 7.4, 3 mM MgCl2, 0.2 mM EGTA and dried at 50 degrees Celsius for at least 30 minutes. 40 μl of Microscint-20 (Perkin Elmer) was added per well, and plates were counted using a Top-Count Microplate Scintillation Counter (Perkin Elmer). Binding data were analyzed and EC50 values were calculated using Graph Pad Prism 4.0 Software.

T1 sequence (P21554 whole entry): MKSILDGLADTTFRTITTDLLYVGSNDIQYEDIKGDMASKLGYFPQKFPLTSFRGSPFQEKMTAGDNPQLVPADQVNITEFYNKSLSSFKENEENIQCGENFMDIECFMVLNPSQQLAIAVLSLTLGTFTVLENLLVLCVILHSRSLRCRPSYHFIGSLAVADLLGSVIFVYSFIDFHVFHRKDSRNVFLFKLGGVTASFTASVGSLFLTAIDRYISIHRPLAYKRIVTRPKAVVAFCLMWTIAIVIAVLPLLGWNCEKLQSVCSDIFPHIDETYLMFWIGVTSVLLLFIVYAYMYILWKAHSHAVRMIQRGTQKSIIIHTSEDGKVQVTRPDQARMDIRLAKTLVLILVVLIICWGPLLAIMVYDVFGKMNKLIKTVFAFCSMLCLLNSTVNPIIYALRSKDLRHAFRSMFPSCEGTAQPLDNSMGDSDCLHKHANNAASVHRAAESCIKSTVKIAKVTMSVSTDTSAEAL

With `CC(C)(C)[C@H](NC(=O)n1c(=O)n(CC2CC=C(F)CC2)c2ccccc21)C(N)=O` (single isomer, unassigned) [Example 305], the affinity on human CB1 receptor [1], expressed as Ki, was 0.18 nM. On human CB1 receptor [2], the EC50 worked out at 1.74 nM.

On human CB1 receptor [1], `CC(C)(C)[C@H](NC(=O)n1c(=O)n(CC2CCOCC2)c2ccccc21)C(N)=O` [Example 132, N-[(1S)-1-(aminocarbonyl)-2,2-dimethylpropyl]-2-oxo-3-(tetrahydro-2H-pyran-4-ylmethyl)-2,3-dihydro-1H-benzimidazole-1-carboxamide] yielded a Ki of 3.4 nM. On human CB1 receptor [2], the EC50 is 12.7 nM.

At human CB1 receptor [1], `CC(C)(C)[C@H](NC(=O)n1c(=O)n(CC2CCCCC2)c2ccc(F)cc21)C(N)=O` [Example 165] showed a Ki of 0.82 nM. Further, a half-maximal response at human CB1 receptor [2] (EC50) required 27.4 nM.

Take `CC(C)(C)[C@H](NC(=O)n1c(=O)n(CC2CCCCC2)c2ccc(Cl)cc21)C(N)=O` [Example 166]: the Ki at human CB1 receptor [1] came out at 2.52 nM. Besides, a half-maximal effect at human CB1 receptor [2] (EC50) was put at 31.5 nM.

Regarding `Cc1ccc2c(c1)n(C(=O)N[C@H](C(N)=O)C(C)(C)C)c(=O)n2CC1CCCCC1` [Example 167], the Ki at human CB1 receptor [1] is 2.66 nM. In addition, a half-maximal effect on human CB1 receptor [2] (EC50) was put at 44.9 nM.

`CC(C)(C)[C@H](NC(=O)n1c(=O)n(CC2CCCCC2)c2cc(F)ccc21)C(N)=O` [Example 169] returned a Ki on human CB1 receptor [1] of 0.28 nM. Further, the concentration for a half-maximal effect (EC50) at human CB1 receptor [2] is 1 nM.

For the molecule `CC(C)(C)[C@H](NC(=O)n1c(=O)n(CC2CCCCC2)c2cc(Cl)ccc21)C(N)=O` [Example 170], on human CB1 receptor [1], the Ki was 0.28 nM. At human CB1 receptor [2], this molecule returned an EC50 of 1.86 nM.

Molecule `CC(C)(C)[C@H](NC(=O)n1c(=O)n(CC2CCCCC2)c2c(F)cccc21)C(N)=O` [Example 172] showed a Ki at human CB1 receptor [1] of 0.77 nM. The molecule also returned a concentration for a half-maximal effect (EC50) at human CB1 receptor [2] of 7.8 nM.

Take `CC(C)(C)[C@H](NC(=O)n1c(=O)n(CC2CCCCC2)c2c(Cl)cccc21)C(N)=O` [Example 173]: on human CB1 receptor [1], the affinity corresponds to a Ki of 0.34 nM. At human CB1 receptor [2], this molecule had an EC50 of 2.5 nM.

`Cc1cccc2c1n(CC1CCCCC1)c(=O)n2C(=O)N[C@H](C(N)=O)C(C)(C)C` [Example 174] gave an inhibition constant Ki at human CB1 receptor [1] of 0.32 nM. Further, a half-maximal response at human CB1 receptor [2] (EC50) required 8.3 nM.

As to `CC(C)(C)[C@@H](CO)NC(=O)n1c(=O)n(CC2CCCCC2)c2ccccc21` [Example 176], on human CB1 receptor [1], the affinity, expressed as Ki, was 2.22 nM. The same molecule displayed an EC50 at human CB1 receptor [2] of 82.4 nM.

Molecule `CCCCCn1c(=O)n(C(=O)N[C@H](CO)C(C)(C)C)c2ccccc21` [Example 178] had a Ki on human CB1 receptor [1] of 8.45 nM. The molecule also registered an EC50 at human CB1 receptor [2] of 137 nM.

The molecule `CN(C)CC(C)(C)CNC(=O)n1c(=O)n(CC2CCCCC2)c2ccccc21` [Example 182] had a Ki at human CB1 receptor [1] of 17 nM. On human CB1 receptor [2], the EC50 is 267 nM.

Consider `O=C(N[C@H]1c2ccccc2C[C@H]1O)n1c(=O)n(CC2CCCCC2)c2ccccc21` [Example 188], for which the Ki at human CB1 receptor [1] was 1.9 nM. This molecule registered an EC50 on human CB1 receptor [2] of 87.7 nM.

In turn, `O=C(N[C@H]1c2ccccc2C[C@H]1O)n1c(=O)n(CC2CCC2)c2ccccc21` [Example 189] came in with a Ki on human CB1 receptor [1] of 88.4 nM. Moreover, a half-maximal response on human CB1 receptor [2] (EC50) required 1020 nM.

`CCCCCn1c(=O)n(C(=O)N[C@H]2c3ccccc3C[C@H]2O)c2ccccc21` [Example 190] gave a Ki at human CB1 receptor [1] of 8.09 nM. The same molecule registered an EC50 at human CB1 receptor [2] of 406 nM.

Molecule `O=C(N[C@H]1CCCC[C@@H]1O)n1c(=O)n(CC2CCCCC2)c2ccccc21` [Example 191] came in with a Ki on human CB1 receptor [1] of 10.5 nM. The molecule further came in with an EC50 at human CB1 receptor [2] of 394 nM.

`CCCCCn1c(=O)n(C(=O)N[C@H]2CCCC[C@@H]2O)c2ccccc21` [Example 193]: the inhibition constant (Ki) at human CB1 receptor [1] amounted to 67.4 nM. At human CB1 receptor [2], this molecule registered an EC50 of 622 nM.

On human CB1 receptor [1], `O=C(N[C@H]1CCCc2ccccc21)n1c(=O)n(CC2CCCCC2)c2ccccc21` [Example 197] displayed a Ki of 0.78 nM. On human CB1 receptor [2], this molecule registered an EC50 of 13.2 nM.

On to `O=C(N[C@H]1CCCc2ccccc21)n1c(=O)n(CC2CCC2)c2ccccc21` [Example 198], for which the Ki at human CB1 receptor [1] came to 5.79 nM. The concentration for a half-maximal effect (EC50) on human CB1 receptor [2] is 46.5 nM.

The molecule `CCCCCn1c(=O)n(C(=O)N[C@H]2CCCc3ccccc32)c2ccccc21` [Example 199] gave a Ki on human CB1 receptor [1] of 0.9 nM. The molecule further displayed an EC50 at human CB1 receptor [2] of 40.1 nM.

Broadly, the Ki is a dissociation constant, usually derived from enzyme kinetics or from competition with a known ligand. The low end stands for a stronger hold on the target, the high end for a looser hold on the target. As a reminder, the EC50 is the concentration at which the effect is half-maximal. Read a low EC50 as higher potency in that assay.
